Results published in ChEMBL document CHEMBL5321293, “Discovery of ERD-3111 as a Potent and Orally Efficacious Estrogen Receptor PROTAC Degrader with Strong Antitumor Activity” (J Med Chem, 2023).

Experiments:
[1] = Downregulation of ERalpha protein expression in tumor of CB17 SCID mouse xenografted with human MCF7 cells harboring wild type ESR1 at 30 mg/kg, po qd for 3 days and measured after 24 hrs last dose by Western blot analysis relative to control; assay type: functional; conditions: time 3 day
[2] = AUC in Beagle dog at 1 mg/kg, po and measured upto 24 hrs by LC-MS/MS analysis; assay type: ADME, organism-based, Canis lupus familiaris; parameters: dose 1 mg/kg, time < 24 hrs, route po; conditions: in vivo
[3] = tested on: MCF7; experiment: Antitumor activity against human MCF7 cells harboring wild type ESR1 xenografted in CB17 SCID mouse assessed as tumor growth inhibition at 10 mg/kg, po qd for 5 weeks; assay type: functional; conditions: MCF7, 840 h, read-out: TGI
[4] = Drug concentration in tumor of CB17 SCID mouse xenografted with human MCF7 cells harboring wild type ESR1 at 10 mg/kg, po qd for 3 days and measured after 6 hrs last dose by LC-MS/MS analysis; assay type: ADME, organism-based, Neoplasm; conditions: time 3 day, read-out: Ct
[5] = in vivo; conditions: Sprague-Dawley, rat, po, 3 mg/kg
[6] = Drug concentration in tumor of CB17 SCID mouse xenografted with human MCF7 cells harboring wild type ESR1 at 30 mg/kg, po qd for 3 days and measured after 3 hrs last dose by LC-MS/MS analysis; assay type: ADME, organism-based, Neoplasm; conditions: time 3 day, read-out: Ct
[7] = tested on: MCF7; experiment: Antitumor activity against human MCF7 cells harboring wild type ESR1 xenografted in CB17 SCID mouse assessed as tumor growth inhibition at 30 mg/kg, po qd for 5 weeks and measured 3 weeks post last dose; assay type: functional; conditions: MCF7, 840 h, read-out: TGI
[8] = Drug concentration in plasma of CB17 SCID mouse xenografted with human MCF7 cells harboring wild type ESR1 at 30 mg/kg, po qd for 3 days and measured after 3 hrs last dose by LC-MS/MS analysis; assay type: ADME, organism-based; conditions: time 3 day
[9] = Downregulation of ERalpha protein expression in tumor of CB17 SCID mouse xenografted with human MCF7 cells harboring ESR1 Y537S mutant at 10 mg/kg, po qd for 3 days and measured after 6 hrs last dose by Western blot analysis relative to control; assay type: functional; conditions: time 3 day
[10] = Drug concentration in plasma of CB17 SCID mouse xenografted with human MCF7 cells harboring ESR1 Y537S mutant at 10 mg/kg, po qd for 3 days and measured after 6 hrs last dose by LC-MS/MS analysis; assay type: ADME, organism-based; conditions: time 3 day
[11] = Downregulation of ERalpha protein expression in tumor of CB17 SCID mouse xenografted with human MCF7 cells harboring wild type ESR1 at 30 mg/kg, po qd for 3 days and measured after 3 hrs last dose by Western blot analysis relative to control; assay type: functional; conditions: time 3 day
[12] = Toxicity in CB17 SCID mouse xenografted with human MCF7 cells harboring ESR1 D538G mutant assessed as body weight change at 30 mg/kg,po qd for 4 weeks; assay type: organism-based; conditions: in vivo, 672 h
[13] = Downregulation of ERalpha protein expression in tumor of CB17 SCID mouse xenografted with human MCF7 cells harboring wild type ESR1 at 10 mg/kg, po qd for 3 days and measured after 24 hrs last dose by Western blot analysis relative to control; assay type: functional; conditions: time 3 day
[14] = tested on: MCF7; experiment: Antitumor activity against human MCF7 cells harboring wild type ESR1 xenografted in CB17 SCID mouse assessed as tumor growth inhibition at 10 mg/kg, po qd for 5 weeks and measured 3 weeks post last dose; assay type: functional; conditions: MCF7, 840 h, read-out: TGI
[15] = Clearance in Sprague-Dawley rat at 1 mg/kg, iv and measured upto 24 hrs by LC-MS/MS analysis; conditions: in vivo
[16] = Drug concentration in tumor of CB17 SCID mouse xenografted with human MCF7 cells harboring wild type ESR1 at 10 mg/kg, po qd for 3 days and measured after 24 hrs last dose by LC-MS/MS analysis; assay type: ADME, organism-based, Neoplasm; conditions: time 3 day, read-out: Ct
[17] = Toxicity in CB17 SCID mouse xenografted with human MCF7 cells harboring ESR1 Y537S mutant assessed as body weight change at 30 mg/kg,po qd for 4 weeks; assay type: organism-based; conditions: in vivo, 672 h
[18] = tested on: MCF7; experiment: Antitumor activity against human MCF7 cells harboring ESR1 Y537S mutant xenografted in CB17 SCID mouse assessed as tumor growth inhibition at 30 mg/kg, po qd for 4 weeks; assay type: functional; conditions: MCF7, 672 h, read-out: TGI
[19] = Toxicity in CB17 SCID mouse xenografted with human MCF7 cells harboring ESR1 Y537S mutant assessed as body weight change at 10 mg/kg,po qd for 4 weeks; assay type: organism-based; conditions: in vivo, 672 h
[20] = AUC in Sprague-Dawley rat at 3 mg/kg, po and measured upto 24 hrs by LC-MS/MS analysis; assay type: ADME, organism-based; parameters: dose 3 mg/kg, time < 24 hrs, route po; conditions: Sprague-Dawley, in vivo
[21] = Oral bioavailability in Beagle dog at 1 mg/kg and measured upto 24 hrs by LC-MS/MS analysis; assay type: ADME, organism-based, Canis lupus familiaris; conditions: in vivo
[22] = tested on: MCF7; experiment: Antitumor activity against human MCF7 cells harboring ESR1 D538G mutant xenografted in CB17 SCID mouse assessed as tumor growth inhibition at 30 mg/kg, po qd for 4 weeks; assay type: functional; conditions: MCF7, 672 h, read-out: TGI
[23] = Drug concentration in plasma of CB17 SCID mouse xenografted with human MCF7 cells harboring wild type ESR1 at 10 mg/kg, po qd for 3 days and measured after 24 hrs last dose by LC-MS/MS analysis; assay type: ADME, organism-based; conditions: time 3 day
[24] = Drug concentration in tumor of CB17 SCID mouse xenografted with human MCF7 cells harboring wild type ESR1 at 30 mg/kg, po qd for 3 days and measured after 24 hrs last dose by LC-MS/MS analysis; assay type: ADME, organism-based, Neoplasm; conditions: time 3 day, read-out: Ct
[25] = molecular target: Protein cereblon/Estrogen receptor (Homo sapiens, UniProt P03372+Q96SW2); experiment: Protac activity at human ERalpha in ER positive human MCF7 cells assessed as reduction in ERalpha protein level at 0.1 to 30 nM by Western blot analysis; assay type: cell-based; conditions: dose 0.1-30 nM
Protein cereblon/Estrogen receptor, sequence (P03372 whole entry, looked up): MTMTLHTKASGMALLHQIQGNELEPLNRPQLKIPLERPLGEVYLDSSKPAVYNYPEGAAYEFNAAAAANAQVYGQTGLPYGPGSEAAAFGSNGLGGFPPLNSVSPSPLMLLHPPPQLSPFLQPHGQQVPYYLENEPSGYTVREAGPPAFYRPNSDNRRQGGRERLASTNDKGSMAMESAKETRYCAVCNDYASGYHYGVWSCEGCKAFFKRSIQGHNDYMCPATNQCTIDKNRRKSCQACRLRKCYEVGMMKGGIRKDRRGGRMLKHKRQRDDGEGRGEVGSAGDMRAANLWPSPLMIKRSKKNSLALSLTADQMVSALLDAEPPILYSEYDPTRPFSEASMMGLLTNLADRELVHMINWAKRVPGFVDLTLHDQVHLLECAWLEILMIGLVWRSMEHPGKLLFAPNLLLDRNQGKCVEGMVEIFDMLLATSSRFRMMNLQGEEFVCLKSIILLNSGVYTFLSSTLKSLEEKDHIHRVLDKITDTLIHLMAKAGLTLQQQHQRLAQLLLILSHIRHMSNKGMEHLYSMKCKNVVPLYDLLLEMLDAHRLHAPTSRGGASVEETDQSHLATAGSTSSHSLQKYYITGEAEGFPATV
Protein cereblon/Estrogen receptor, sequence (Q96SW2 whole entry, looked up): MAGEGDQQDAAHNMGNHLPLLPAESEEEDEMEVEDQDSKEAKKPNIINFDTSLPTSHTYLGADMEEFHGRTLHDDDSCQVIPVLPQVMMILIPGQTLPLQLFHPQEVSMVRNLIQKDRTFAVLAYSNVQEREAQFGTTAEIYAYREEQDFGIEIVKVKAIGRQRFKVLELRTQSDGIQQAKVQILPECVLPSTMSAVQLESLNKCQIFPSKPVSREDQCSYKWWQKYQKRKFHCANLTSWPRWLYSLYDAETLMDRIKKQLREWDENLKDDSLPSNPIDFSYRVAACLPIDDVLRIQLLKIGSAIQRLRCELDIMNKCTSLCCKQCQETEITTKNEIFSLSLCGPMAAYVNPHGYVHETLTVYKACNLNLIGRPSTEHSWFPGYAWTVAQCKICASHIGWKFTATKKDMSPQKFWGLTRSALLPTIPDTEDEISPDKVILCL

[26] = molecular target: Cytochrome P450 2C9 (Homo sapiens, UniProt P11712); experiment: Inhibition of CYP2C9 in human liver microsomes preincubated for 5 mins in presence substrate followed by NADPH addition and measured after 10 mins by LC-MS/MS analysis; assay type: ADME, Microsome
Cytochrome P450 2C9, sequence (P11712 whole entry): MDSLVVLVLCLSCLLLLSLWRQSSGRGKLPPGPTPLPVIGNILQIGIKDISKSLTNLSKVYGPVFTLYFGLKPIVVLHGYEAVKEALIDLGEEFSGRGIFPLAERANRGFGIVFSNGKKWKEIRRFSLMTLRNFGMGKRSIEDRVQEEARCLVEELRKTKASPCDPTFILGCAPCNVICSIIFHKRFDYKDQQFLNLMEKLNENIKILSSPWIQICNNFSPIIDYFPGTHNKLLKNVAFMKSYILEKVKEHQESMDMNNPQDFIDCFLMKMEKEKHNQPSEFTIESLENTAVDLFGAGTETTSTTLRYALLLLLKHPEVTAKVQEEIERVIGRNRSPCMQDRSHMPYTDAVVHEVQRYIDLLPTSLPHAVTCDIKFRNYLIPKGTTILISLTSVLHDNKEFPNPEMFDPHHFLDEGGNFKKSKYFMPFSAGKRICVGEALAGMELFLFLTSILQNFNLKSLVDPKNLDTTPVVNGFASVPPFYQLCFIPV

[27] = molecular target: T1, Cytochrome P450 2C8 (Homo sapiens, UniProt P10632); experiment: Inhibition of CYP2C8 in human liver microsomes preincubated for 5 mins in presence substrate followed by NADPH addition and measured after 10 mins by LC-MS/MS analysis; assay type: ADME, Microsome
T1 sequence (P10632 whole entry): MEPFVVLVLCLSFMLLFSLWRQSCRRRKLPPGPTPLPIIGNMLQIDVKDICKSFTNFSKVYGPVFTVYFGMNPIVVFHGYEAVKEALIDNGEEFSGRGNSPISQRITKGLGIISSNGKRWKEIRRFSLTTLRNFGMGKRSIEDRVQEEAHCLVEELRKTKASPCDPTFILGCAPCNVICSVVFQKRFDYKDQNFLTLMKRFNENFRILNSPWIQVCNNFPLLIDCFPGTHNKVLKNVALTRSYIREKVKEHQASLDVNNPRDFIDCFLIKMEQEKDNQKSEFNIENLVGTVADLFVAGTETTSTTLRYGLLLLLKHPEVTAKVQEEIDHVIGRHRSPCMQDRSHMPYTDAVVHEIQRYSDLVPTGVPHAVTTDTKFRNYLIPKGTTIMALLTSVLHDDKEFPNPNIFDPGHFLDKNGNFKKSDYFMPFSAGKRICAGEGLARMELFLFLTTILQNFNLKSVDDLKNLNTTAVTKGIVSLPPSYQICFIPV

AUC at 24 h [2]: 937 ng·h/mL | concentration at 72 h [4]: 385 ng/mL | Cmax at 24 h [5]: 141 ng/mL | concentration at 72 h [6]: 1410 ng/mL | concentration at 72 h [8]: 1980 ng/mL | concentration at 72 h [10]: 502 ng/mL | clearance at 24 h [15]: 7.4 mL/min/kg | concentration at 72 h [16]: 162 ng/mL | AUC at 24 h [20]: 1320 ng·h/mL | bioavailability [21]: 66% | concentration at 72 h [23]: 18 ng/mL | concentration at 72 h [24]: 413 ng/mL | Activity [25]: Dose-Dependent Effect | IC50 [26]: > 10 µM | IC50 [27]: > 10 µM
SMILES: C[C@@H]1Cc2c(ccc3[nH]ncc23)[C@@H](c2c(F)cc(N3CCC4(CCN(C(=O)CN5Cc6cc7c(cc6C5)C(=O)N(C5CCC(=O)NC5=O)C7=O)CC4)CC3)cc2F)N1CC(F)F (some centres not stated)
Activity [1]: 73% | inhibition in vivo at 10 mg/kg [3]: 24% | inhibition in vivo at 30 mg/kg [7]: 42% | Activity [9]: 70% | Activity [11]: 82% | Activity [12]: Non-Toxic | Activity [13]: 70% | inhibition in vivo at 10 mg/kg [14]: 13% | Activity [17]: Non-Toxic | inhibition in vivo at 30 mg/kg [18]: 86% | Activity [19]: Non-Toxic | inhibition in vivo at 30 mg/kg [22]: 51%
